Where no end group is shown, it is not given here.

Experiment [1] concerns EAE. Put plainly: EAE induced by guinea pig MBP 71-90, feeding of MBP peptides. Type of experiment: in vivo, Lewis rats. To be noted: fed; FIG. 14. Here is the method:
The effects of feeding various peptides to Lewis rats induced for EAE by guinea pig MBP residue nos. 71-90 (the major immunodominant epitope of guinea pig MBP as shown in Example 3 above) were also studied.
EAE was induced by immunizing with 0.25 mg of guinea pig MBP amino acid residue nos 71-90 in Complete Freund's Adjuvant and the effect of feeding various guinea pig MBP peptides on EAE was examined.

For experiment [2], the system named is EAE. Put plainly: I.V. tolerization with MBP and MBP peptides in EAE induced with whole guinea pig MBP. To be noted: days 8 and 9 post immunization, FIG. 16. The format is in vivo, SJL/J mice. An excerpt:
FIG. 16 is a bar graph showing the effect of intravenous tolerization with MBP and disease inducing and non-inducing fragments thereof on induced EAE expression in SJL/J mice.
Finally, the suppression of EAE by I.V. tolerization with MBP and MBP peptides prior to disease expression (on days 8 and 9 post immunization) was examined.

A further experiment relates to DTH responses. Put plainly: DTH responses in animals fed MBP or MBP peptides. The format is in vivo, Lewis rats. The following applies: FIG. 15. An excerpt: Guinea pig MBP peptide 131-150 was ineffective in this case. Peptides were also fed with STI which prevents their breakdown by gastric juices and enhances their biological effect. DTH responses to whole MBP were suppressed by feeding MBP or any one of the MBP-peptides 21-40, or 71-90.

A further experiment has as its system OVA (responder) line. Put plainly: Transwell triggering of suppression by MBP peptides. The format is cell-based, rats. To be noted: peptide added to modulator well with spleen cells of MBP-fed animals; FIG. 11. An excerpt:
Transwell Cultures. A dual chamber transwell culture system (Costar, Cambridge, Mass.), which is 24.5 mm in diameter and consists of two compartments separated by a semi-permeable polycarbonate membrane, with a pore size of 0.4 μm, was used. The two chambers are 1 mm apart, allowing cells to be coin-cubated in close proximity without direct cell-to-cell contact. To measure in vitro suppression of proliferative responses in transwell cultures, 5×10^4 MBP- or OVA-specific line cells, raised and maintained as previously described (Ben-Nun, A. et al., Eur. J. Immunol. 11:195, 1981), were cultured with 10^6 irradiated (2,500 rad) thymocytes, in 600 μl of proliferation media in the lower well. Spleen cells from orally tolerized rats or controls (fed BSA) were added to the upper well (5×10^5 cells in 200 μl). Spleen cells were removed 7-14 days after the last feeding, and a single cell suspension was prepared by pressing the spleens through a stainless steel mesh. MBP and OVA (50 μg/ml) were added in a volume of 20 μl. […] In some experiments, modulator cells were added in the lower well together with responder cells, and in these instances modulator cells were irradiated (1,250 rad) immediately before being placed in culture. Proliferation media consisted of RPMI 1640 (Gibco Laboratories, Grand Island, N.Y.) supplemented with […] 2-mercaptoethanol, 1% sodium pyruvate, 1% penicillin and streptomycin, 1% glutamine, 1% HEPES buffer, 1% nonessential amino acids, and 1% autologous serum. Each transwell was performed in quadruplicate. The transwells were incubated at 37° C. in a humidified 6% CO2 and 94% air atmosphere for 72 hours. After 54 hours of culture, each lower well was pulsed with 4 μCi of [^3H]thymidine and at 72 hours split and reseeded to three wells in a round-bottomed 96-well plate (Costar) for harvesting onto fiberglass filters and counting using standard liquid scintillation techniques. Percent suppression =100×(1−Δ A cpm responders cultured with modulators/Δ cpm of responders).
The Transwell System of Example 2 above was used to identify the epitopes present on guinea pig MBP which induce the release of TGF-β from suppressor T-cells.
Peptides corresponding to guinea pig MBP residue nos.

Another experiment relates to insulitis. Put plainly: Suppression of insulitis in NOD mice by oral administration. The format is in vivo. The following applies: fed orally; for Insulitis Score: amount (mg) per Table 5, sacrificed at ten weeks of age. The procedure: NOD mice (Taconic Labs) were fed one mg of glucagon, or one mg of porcine insulin (both commercially purchased) or equal molar amounts of insulin A-chain, B-chain and B-chain peptides described below (all insulin fragments having been synthesized) twice weekly for five weeks and sacrificed at ten weeks of age.
Control animals were fed a non-pancreatic (i.e., unrelated) peptide, GAP. Insulitis was measured as a semiquantitative insulitis score according to the method described in Zhang, Z. J., PNAS(USA), 88:10252-10256, 1991.
The insulin B-chain peptides corresponded to amino acid residues 1-12 (B1-12), 10-22 (B10-22), 11-30 (B11-30) and 23-30 (B23-30). All animals were fed 10 times over three weeks.

The subject of experiment [3] is EAE. Put plainly: EAE induced with PLP peptide 140-160, oral vs. I.V. administration. Type of experiment: in vivo, SJL/J mice. The following applies: 0.25 mg every other day. The procedure:
2. Fed Mouse MBP (0.25 mg)
3. Fed Bovine PLP (0.25 mg)
4. Inject I.V. Histone (0.25 mg)
5. Inject I.V. MBP (0.25 mg)
6. Inject I.V. PLP (0.25 mg)
Each group was treated every other day for 7 days. In the intravenous group, the material was injected into the eye plexus. The PLP peptide used was the disease inducing fragment 140-160 of bovine PLP. This peptide has the amino acid sequence H2N-[…]-CO2H (SEQ. ID NO: 13), representing the foregoing amino acid residues.

For the molecule “guinea pig MBP 21-40: peptide corresponding to guinea pig MBP amino acid residues 21-40 (MDHARHGFLPRHRDTGILDS; UniProt P25188 21-40, looked up, fragment)”, the “down-regulation of EAE induced by guinea pig MBP 71-90” value in the experiment with EAE [1] is “equally effective in down-regulating EAE”. The “suppression of EAE induced with whole guinea pig MBP” value in the experiment with EAE [2] is on record as “ineffective in suppressing EAE”. Besides, in the experiment with DTH responses, the “DTH responses to guinea pig MBP peptide 71-90” value is listed as “not affected” and the “DTH responses to whole MBP” value is “suppressed”. The “triggering suppression of proliferation in the transwell system” value (shortened to “triggering suppression of proliferation”) in the experiment on OVA (responder) line was “capable of triggering suppression of proliferation”.

With glucagon [reference compound], in the experiment with insulitis, the “suppression of insulitis (in words)” value is “effective in suppressing insulitis” and the “Insulitis Score” value is 1.81.

For the molecule “guinea pig MBP 51-70: peptide corresponding to guinea pig MBP amino acid residues 51-70 (APKRGSGKDSHHAARTTHYG; UniProt P25188 51-70, looked up, fragment)”, the “triggering suppression of proliferation” value in the experiment with OVA (responder) line is “capable of triggering suppression of proliferation”.

As to “B1-12: insulin B-chain peptide, amino acid residues 1-12 (FVNQHLCGSHLV; ends and bridges not checked; UniProt P01308 25-36, looked up, fragment)”, in the experiment with insulitis, the “suppression of insulitis (in words)” value is “suppressed insulitis” and the “Insulitis Score” value is 1.76.

In the case of “guinea pig MBP 101-120: peptide corresponding to guinea pig MBP amino acid residues 101-120 (SQGKGRGLSLSRFSWGAEGQ; UniProt P25188 101-120, looked up, fragment)”, the “triggering suppression of proliferation” value with OVA (responder) line is “capable of triggering suppression of proliferation”.

As for A-Chain: insulin A-chain, synthesized, in the experiment on insulitis, the “suppression of insulitis (in words)” value is reported as “suppressed insulitis” and the “Insulitis Score” value is on record as 1.88.

With “B23-30: insulin B-chain peptide, amino acid residues 23-30 (GFFYTPKT; Insulin B chain; UniProt P01308 47-54, looked up, fragment)”, in the experiment on insulitis, the “suppression of insulitis (in words)” value is “did not” and the “Insulitis Score” value is given as 2.22.

Turning to “B11-30: insulin B-chain peptide, amino acid residues 11-30 (LVEALYLVCGERGFFYTPKT; ends and bridges not checked; UniProt P01308 35-54, looked up, fragment)”, in the experiment on insulitis, the “suppression of insulitis (in words)” value was “suppressed insulitis” and the “Insulitis Score” value came out at 1.44.

For “B10-22: insulin B-chain peptide, amino acid residues 10-22 (HLVEALYLVCGER; ends and bridges not checked; UniProt P01308 34-46, looked up, fragment)”, in the experiment with insulitis, the “suppression of insulitis (in words)” value is recorded as “suppressed insulitis” and the “Insulitis Score” value is listed as 1.71.

In the case of B-Chain: insulin B-chain, synthesized, in the experiment on insulitis, the “suppression of insulitis (in words)” value was “suppressed insulitis” and the “Insulitis Score” value came to 1.32.

On to “guinea pig MBP 131-150: Guinea pig MBP peptide 131-150 (DYKSKGFKGAHDAQGTLSKI; UniProt P25188 131-150, looked up, fragment)”, for which the “down-regulation of EAE induced by guinea pig MBP 71-90” value in the experiment on EAE [1] is given as “ineffective”. Besides, the “suppression of EAE induced with whole guinea pig MBP” value in the experiment with EAE [2] is “ineffective in suppressing EAE”.

B1: bovine PLP: Bovine proteolipid protein (protein, listed as Bos taurus)
chain: GLLECCARCLVGAPFASLVATGLCFFGVALFCGCGHEALTGTEKLIETYFSKNYQDYEYLINVIHAFQYVIYGTASFFFLYGALLLAYGFYTTGAVRQIFGDYKTTICGKGLSATVTGGQKGRGSRGQHQAHSLERVCHCLGKWLGHPDKFVGITYALTVVWLLVFACSAVPVYIYFNTWTTCQSIAAPSKTSASIGTLCADARMYGVLPWNAFPGKVCGSNLLSICKTAEFQMTFHLFIAAFVGAAATLVSLVTFMIAATYNFAVLKLMGRGTKF
For B1, the “suppression of PLP-peptide-induced EAE” value is reported as “effective in suppressing EAE” with EAE [3] (administered intravenously, FIG. 13) and “equally effective in down-regulating PLP-peptide-induced EAE” in the experiment on EAE [3] (orally administered, FIG. 12).

B2: mouse MBP: Mouse myelin basic protein (protein, UniProt P04370 1-250, looked up)
Myelin basic protein: MGNHSGKRELSAEKASKDGEIHRGEAGKKRSVGKLSQTASEDSDVFGEADAIQNNGTSAEDTAVTDSKHTADPKNNWQGAHPADPGNRPHLIRLFSRDAPGREDNTFKDRPSESDELQTIQEDPTAASGGLDVMASQKRPSQRSKYLATASTMDHARHGFLPRHRDTGILDSIGRFFSGDRGAPKRGSGKDSHTRTTHYGSLPQKSQHGRTQDENPVVHFFKNIVTPRTPPPSQGKGGRDSRSGSPMARR
Regarding B2, the “suppression of PLP-peptide-induced EAE” value in the experiment with EAE [3] (orally administered, FIG. 12) is listed as “equally effective in down-regulating PLP-peptide-induced EAE”.

For the origin of these results see US6645504B1, “Bystander suppression of type I diabetes by oral administration of glucagon” (AutoImmune Inc., priority 1987, dated 2003).
